Measured values reported in paper PMC11595589, “A Pharmacokinetic and Bioavailability Study of Ecklonia cava Phlorotannins Following Intravenous and Oral Administration in Sprague–Dawley Rats” (Marine Drugs, 2024).
Like-named read-outs stand apart in the source and are kept apart here. Marks after values point to notes of the source that are not given here.

What was measured:
[1] = Single-dose pharmacokinetics after IV bolus administration of EK-ECP; assay type: in vivo, male Sprague–Dawley rats; settings: IV bolus 10 mg/kg EK-ECP; for T1/2 (terminal half-life) / half-life / AUC(0-t) / Vd / AUC(0-inf) / MRT last / C0: mean (CV); for T1/2 (terminal half-life) / half-life / AUC(0-t) / Vd: 10 mg/kg; for Tlast: median (minimum-maximum); for half-life / AUC(0-t) / Vd / AUC(0-inf) / MRT last / clearance / C0: male, Sprague-Dawley, rat; for half-life / AUC(0-t) / Vd: iv; for clearance: read-out: Mean clearance (Cl) (converted)
Protocol: EK-ECP was administered to male Sprague–Dawley rats by either IV bolus (Group 1, 10 mg/kg) or oral gavage (Groups 2, 3 or 4, at 10, 100 or 1000 mg/kg, respectively) administration. Blood collection intervals were pre dose (0), and 0.25, 0.5, 1, 2, 4, 6, 8, 12, 24 and 36 h post dose. Plasma samples were analyzed for concentrations of 8,8′-bieckol, dieckol, and PFF-A; all pre-dose sample results were less than the lower limit of quantitation (LLOQ < 1 ng/mL). The time profiles of the plasma concentrations of 8,8′-bieckol, dieckol, and PFF-A in individual animals are illustrated in Figure 4. The mean pharmacokinetic parameters and corresponding coefficient of variation (CV) following IV administration of 10 mg/kg EK-ECP to male rats are illustrated in Table 1. Those following oral administrations of 10, 100 and 1000 mg/kg EK-ECP to male rats are illustrated in Table 2.
Total of 20 male CD® [Crl:CD®(SD)] rats (approximately 11.5 weeks of age) obtained from Charles River Laboratories (Portage, MI, USA) were used in our study. These included five rats with both jugular and femoral vein cannulations, and 15 rats with jugular vein cannulations. Of the 20 animals received, 16 male rats were placed in the study, comprising four rats with both jugular and femoral vein cannulations, and 12 rats with jugular vein cannulations. The rats were housed in the Mattawan facility of MPI Research Inc (currently Charles River Laboratories, Mattawan, MI, USA). Animal welfare for this study was in compliance with the U.S. Department of Agriculture’s (USDA) Animal Welfare Act (9 CFR Parts 1, 2 and 3). This facility maintained an animal welfare assurance statement with the National Institutes of Health Office of Laboratory Animal Welfare. All procedures were approved before the study by the institutional animal care utilization committee. Animals were individually housed and fed a basal diet of Lab Diet Certified Rodent Diet #5002, PMI Nutrition International, Inc. Food and water was available ad libitum except during fasting periods, when food was withheld, and during any required restraint periods, when both food and water were withheld. Animal rooms were maintained at (20 ± 2) °C and (50 ± 20)% relative humidity with a 12 h light/dark cycle throughout the study.
For intravenous administration, EK-ECP was dissolved in 70/25/5 (v/v) phosphate-buffered saline (PBS)/propylene glycol/ethanol (pH 5.1 final concentration of 2 mg/mL) and stabilized at room temperature for 24 h. For oral administration, after an amount of EK-ECP appropriate to the final targeted formulation concentrations was weighed and placed in a bottle, a small amount of the vehicle (water for injection) was added and mixed using a vortex mixer and heated to between 60 to 70 °C until homogeneously suspended. Additional amounts of the vehicle were gradually added to yield the targeted EK-ECP concentrations (1, 10, and 100 mg/mL). Dosing occurred within 4 h after preparation completion. The individual constituent doses of dieckol, 8,8′-bieckol, and PFF-A in each dosing formulation were analyzed by RP-HPLC followed by interpolation of the corresponding area% to the calibration curve prepared with known concentrations of isolated standards. The animals were fasted for a minimum of 4 h prior to dosing and through the first 4 h of blood sample collection. Each animal in Group 1 received a single intravenous (IV) dose of the 10 mg/kg EK-ECP. The intravenous doses were administered as a slow bolus injection over 5 min through the femoral vein cannula. The cannula was flushed with approximately 0.3 mL of sterile 0.9% sodium chloride for injection, USP, immediately following dosing. Each animal in Groups 2, 3 and 4 received a single oral (PO) gavage dose of the appropriate test article formulation, as outlined Table 3. Oral gavage dosing formulations were continuously stirred throughout dosing. […]

mouse-model = tested on: mouse-model; set-up: method as in PMID 16042079; settings: oral administration, mouse model ref 64; cited from earlier work
[2] = stated in the discussion without data or reference; cited from earlier work
[3] = Stability at pH 2 by UV–Vis spectroscopy (gastric juice degradation); assay type: physicochemical; settings: period of at least 5 h, unpublished data
Text: To address the potential reduction in bioavailability due to degradation by gastric juice, we evaluated the stability of dieckol as a representative compound of phlorotannins at a pH of 2 using UV–Vis spectroscopy.

gut microbial ecosystem = settings: hydroethanolic extract of Silvetia compressa ref 73; cited from earlier work
[4] = plasma, ln(2)·MRTlast, read-out: Effective T1/2 (converted)
[5] = plasma, read-out: T1/2 (terminal half-life) (converted)

| SMILES | plasma concentrations quantifiable up to [1] [h] | T1/2 (terminal half-life) [1] | Tlast [1] | half-life [1, 4] [h] | AUC(0-t) ([1]; plasma, read-out: AUC(0–24h)) [ng·h/mL] | AUC(0-t) ([1]; plasma, read-out: AUCTlast) [ng·h/mL] | half-life [1, 5] [h] | Vd ([1]; plasma, read-out: Vss) [L/kg] | Vd ([1]; plasma, read-out: Vz) [L/kg] | AUC(0-inf) ([1]; plasma) [ng·h/mL] | MRT last ([1]; plasma) [h] | clearance ([1]; plasma) [mL/min/kg] | C0 ([1]; plasma) [ng/mL] | oral dose with CNS-directed effect (as low as) (mouse-model) [mg/kg/bw] | also measured |
| --- | --- | --- | --- | --- | --- | --- | --- | --- | --- | --- | --- | --- | --- | --- | --- |
| Oc1cc(O)cc(Oc2c(O)cc(O)c3c2Oc2c(O)cc4oc5c(Oc6cc(O)cc(O)c6)c(O)cc(O)c5c4c2O3)c1 [PFF-A, phlorofucofuroeckol-A] | 2 | 0.731 (4) ^c h | 2 (1–2) h | 0.36 | 9.03 | 7.81 | ~0.731 | 77.6 | 89.2 | 10.1 | 0.52 | 1400 | 12.8 | 0.2 | solubility in water [2]: virtually insoluble in water |
| Oc1cc(O)cc(Oc2c(O)cc(O)c3c2Oc2c(cc(O)c(-c4c(O)cc5c(c4O)Oc4c(Oc6cc(O)cc(O)c6)c(O)cc(O)c4O5)c2O)O3)c1 [8,8′-bieckol] | 36 | 9.42 (9) h | 36 (36–36) h |  |  |  |  |  |  |  |  |  |  |  | half-life ([1]; in vivo, ln(2)·MRTlast, read-out: Effective T1/2 (converted)): 1.3 h; AUC(0-t) ([1]; in vivo, read-out: AUC(0–24h)): 6540 ng·h/mL; AUC(0-t) ([1]; in vivo, read-out: AUCTlast): 6620 ng·h/mL; half-life ([1]; in vivo, read-out: T1/2 (terminal half-life) (converted)): ~9.42 h; Vd ([1]; in vivo, read-out: Vss): 0.366 L/kg; Vd ([1]; in vivo, read-out: Vz): 2.2 L/kg; AUC(0-inf) ([1]; in vivo): 6670 ng·h/mL; MRT last ([1]; in vivo): 1.88 h; C0 ([1]; in vivo, plasma): 7220 ng/mL; clearance ([1]; in vivo): 2.7 mL/min/kg |
| Oc1cc(O)cc(Oc2c(O)cc(O)c3c2Oc2c(O)cc(Oc4c(O)cc(Oc5c(O)cc(O)c6c5Oc5c(O)cc(O)cc5O6)cc4O)cc2O3)c1 [dieckol] | 36 | 11.9 (7) h | 36 (36–36) h | 1.48 | 5190 | 5290 | ~11.9 | 0.57 | 3.35 | 5390 | 2.14 | 3.22 | 8890 | 1.0 | stability at pH 2 [3]: no significant changes; metabolism during fermentation (gut microbial ecosystem): metabolized within eight hours of fermentation |
